Laboratory results from ChEMBL document CHEMBL3132769, “Fragment growing to retain or alter the selectivity of anchored kinase hinge-binding fragments” (Medchemcomm, 2014).

Experiments:
[1] = target: T1, Serine/threonine-protein kinase Sgk3 (Homo sapiens) (UniProt Q96BR1); assay: Inhibition of human full length SGK3 expressed in baculovirus assessed as substrate phosphorylation using fluorescence-labelled peptides as substrate at 95 uM after 90 mins by microfluidic peptide phosphorylation assay
T1 sequence (whole entry): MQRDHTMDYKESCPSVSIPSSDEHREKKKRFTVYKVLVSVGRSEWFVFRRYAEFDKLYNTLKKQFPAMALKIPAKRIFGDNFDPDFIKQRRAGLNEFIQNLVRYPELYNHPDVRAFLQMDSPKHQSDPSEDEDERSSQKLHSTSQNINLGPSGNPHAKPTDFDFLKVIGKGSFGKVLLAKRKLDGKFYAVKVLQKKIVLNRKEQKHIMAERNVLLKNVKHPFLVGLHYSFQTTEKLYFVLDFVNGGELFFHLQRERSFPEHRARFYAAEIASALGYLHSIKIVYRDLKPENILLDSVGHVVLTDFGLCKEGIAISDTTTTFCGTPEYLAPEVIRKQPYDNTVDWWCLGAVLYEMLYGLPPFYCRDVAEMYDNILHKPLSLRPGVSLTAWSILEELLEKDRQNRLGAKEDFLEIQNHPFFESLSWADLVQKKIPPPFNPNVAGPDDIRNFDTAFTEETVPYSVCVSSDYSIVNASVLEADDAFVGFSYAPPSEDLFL

[2] = target: T2, Inhibitor of nuclear factor kappa-B kinase subunit beta (Homo sapiens) (UniProt O14920); assay: Inhibition of human full length IKK beta expressed in baculovirus assessed as substrate phosphorylation using fluorescence-labelled peptides as substrate at 95 uM after 90 mins by microfluidic peptide phosphorylation assay
T2 sequence (whole entry): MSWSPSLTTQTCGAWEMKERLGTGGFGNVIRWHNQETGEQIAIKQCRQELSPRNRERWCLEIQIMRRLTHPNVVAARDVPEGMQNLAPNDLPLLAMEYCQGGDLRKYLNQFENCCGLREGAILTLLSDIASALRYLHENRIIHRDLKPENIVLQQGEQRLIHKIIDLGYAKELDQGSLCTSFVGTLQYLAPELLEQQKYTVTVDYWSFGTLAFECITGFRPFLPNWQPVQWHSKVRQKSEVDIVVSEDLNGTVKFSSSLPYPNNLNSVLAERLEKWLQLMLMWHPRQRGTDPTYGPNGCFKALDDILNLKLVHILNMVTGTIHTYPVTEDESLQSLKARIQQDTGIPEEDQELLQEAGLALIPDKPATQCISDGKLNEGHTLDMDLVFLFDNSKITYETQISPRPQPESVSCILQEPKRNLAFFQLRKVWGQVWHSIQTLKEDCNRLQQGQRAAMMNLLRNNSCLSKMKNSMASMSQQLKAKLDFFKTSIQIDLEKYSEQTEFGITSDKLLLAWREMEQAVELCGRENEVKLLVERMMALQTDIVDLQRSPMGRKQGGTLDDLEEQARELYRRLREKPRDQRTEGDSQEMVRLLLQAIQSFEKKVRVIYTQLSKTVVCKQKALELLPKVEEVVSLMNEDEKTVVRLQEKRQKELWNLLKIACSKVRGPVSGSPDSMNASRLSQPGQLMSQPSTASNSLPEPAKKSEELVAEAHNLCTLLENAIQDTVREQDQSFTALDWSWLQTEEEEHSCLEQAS

[3] = target: Serine/threonine-protein kinase pim-1 (Homo sapiens) (UniProt P11309); assay: Inhibition of human full length PIM1 expressed in baculovirus assessed as substrate phosphorylation using fluorescence-labelled peptides as substrate at 0.2 uM after 90 mins by microfluidic peptide phosphorylation assay
Sequence of Serine/threonine-protein kinase pim-1 (Homo sapiens) (P11309 whole entry, looked up): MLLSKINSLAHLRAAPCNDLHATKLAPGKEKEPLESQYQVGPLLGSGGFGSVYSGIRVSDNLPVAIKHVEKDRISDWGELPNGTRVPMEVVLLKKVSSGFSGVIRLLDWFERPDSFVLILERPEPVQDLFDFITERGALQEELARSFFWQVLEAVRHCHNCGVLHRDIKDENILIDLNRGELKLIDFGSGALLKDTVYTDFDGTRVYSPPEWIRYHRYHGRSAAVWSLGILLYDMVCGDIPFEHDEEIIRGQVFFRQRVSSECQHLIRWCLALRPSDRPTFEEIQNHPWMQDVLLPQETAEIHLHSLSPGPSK

[4] = target: Protein kinase C beta type (Homo sapiens) (UniProt P05771); assay: Inhibition of human full length PKC beta2 expressed in baculovirus assessed as substrate phosphorylation using fluorescence-labelled peptides as substrate at 8 uM after 90 mins by microfluidic peptide phosphorylation assay
[5] = target: Tyrosine-protein kinase ABL1 (Homo sapiens) (UniProt P00519); assay: Inhibition of human full-length ABL expressed in baculovirus assessed as substrate phosphorylation using fluorescence-labelled peptides as substrate at 8 uM after 90 mins by microfluidic peptide phosphorylation assay
Sequence of Tyrosine-protein kinase ABL1 (Homo sapiens) (P00519 whole entry, the tested form may be a part): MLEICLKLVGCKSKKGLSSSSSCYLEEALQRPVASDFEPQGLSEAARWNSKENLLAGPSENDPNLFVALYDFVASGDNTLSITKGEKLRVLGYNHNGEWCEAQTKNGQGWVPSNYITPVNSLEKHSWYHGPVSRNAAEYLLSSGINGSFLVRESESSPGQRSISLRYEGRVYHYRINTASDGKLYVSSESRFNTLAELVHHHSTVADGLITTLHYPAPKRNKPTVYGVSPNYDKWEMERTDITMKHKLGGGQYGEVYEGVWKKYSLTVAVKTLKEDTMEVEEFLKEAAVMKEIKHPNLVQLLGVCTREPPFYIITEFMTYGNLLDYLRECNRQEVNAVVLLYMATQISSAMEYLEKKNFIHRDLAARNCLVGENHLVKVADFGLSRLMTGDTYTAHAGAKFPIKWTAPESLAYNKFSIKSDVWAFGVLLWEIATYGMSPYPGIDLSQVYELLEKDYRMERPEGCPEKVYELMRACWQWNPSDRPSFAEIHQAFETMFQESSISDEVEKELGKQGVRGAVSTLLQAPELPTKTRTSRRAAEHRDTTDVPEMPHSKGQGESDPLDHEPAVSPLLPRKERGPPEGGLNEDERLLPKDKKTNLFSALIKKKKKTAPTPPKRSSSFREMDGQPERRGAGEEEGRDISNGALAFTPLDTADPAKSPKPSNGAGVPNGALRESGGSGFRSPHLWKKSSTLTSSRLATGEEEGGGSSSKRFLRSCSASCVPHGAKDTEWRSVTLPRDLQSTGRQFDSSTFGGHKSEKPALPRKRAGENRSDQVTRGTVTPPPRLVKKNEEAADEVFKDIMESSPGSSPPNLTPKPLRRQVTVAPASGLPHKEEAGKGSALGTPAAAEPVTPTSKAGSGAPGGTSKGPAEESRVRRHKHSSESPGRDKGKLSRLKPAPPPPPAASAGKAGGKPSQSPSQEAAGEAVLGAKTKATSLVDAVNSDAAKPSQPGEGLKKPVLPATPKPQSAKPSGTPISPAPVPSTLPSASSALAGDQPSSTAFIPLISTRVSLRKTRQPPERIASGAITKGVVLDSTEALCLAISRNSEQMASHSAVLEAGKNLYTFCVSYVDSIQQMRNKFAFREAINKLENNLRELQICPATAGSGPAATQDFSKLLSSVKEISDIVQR

Homo sapiens = species on record: Homo sapiens; assay: Inhibition of human P70S6K catalytic domain expressed in baculovirus assessed as substrate phosphorylation using fluorescence-labelled peptides as substrate at 8 uM after 90 mins by microfluidic peptide phosphorylation assay
[6] = target: MAP kinase p38 (Homo sapiens) (UniProt O15264+Q15759+Q16539+P53778); assay: Inhibition of human full length p38 beta2 expressed in Escherichia coli cell assessed as substrate phosphorylation using fluorescence-labelled peptides as substrate at 2 uM after 90 mins by microfluidic peptide phosphorylation assay
Sequence of MAP kinase p38 (Homo sapiens) (O15264 whole entry, looked up): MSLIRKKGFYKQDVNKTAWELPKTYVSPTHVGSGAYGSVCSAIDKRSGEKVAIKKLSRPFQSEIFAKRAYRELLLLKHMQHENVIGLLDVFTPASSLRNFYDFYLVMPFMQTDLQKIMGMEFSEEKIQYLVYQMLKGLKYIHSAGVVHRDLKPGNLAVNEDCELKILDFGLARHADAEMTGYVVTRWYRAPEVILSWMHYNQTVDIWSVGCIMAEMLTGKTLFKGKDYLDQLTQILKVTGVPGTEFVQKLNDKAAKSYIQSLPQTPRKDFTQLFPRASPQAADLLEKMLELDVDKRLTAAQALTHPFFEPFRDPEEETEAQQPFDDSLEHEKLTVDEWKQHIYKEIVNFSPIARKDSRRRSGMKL
Sequence of MAP kinase p38 (Homo sapiens) (P53778 whole entry, looked up): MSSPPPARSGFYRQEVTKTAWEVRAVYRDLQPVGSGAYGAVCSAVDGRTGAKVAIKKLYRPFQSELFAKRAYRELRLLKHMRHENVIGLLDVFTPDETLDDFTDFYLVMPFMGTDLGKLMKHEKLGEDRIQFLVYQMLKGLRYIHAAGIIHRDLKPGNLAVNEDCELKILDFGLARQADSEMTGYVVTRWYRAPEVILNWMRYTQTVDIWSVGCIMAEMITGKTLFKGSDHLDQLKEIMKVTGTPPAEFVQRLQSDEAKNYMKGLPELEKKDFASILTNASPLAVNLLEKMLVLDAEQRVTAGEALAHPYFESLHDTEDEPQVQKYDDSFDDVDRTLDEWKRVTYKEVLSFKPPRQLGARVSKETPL
Sequence of MAP kinase p38 (Homo sapiens) (Q15759 whole entry, looked up): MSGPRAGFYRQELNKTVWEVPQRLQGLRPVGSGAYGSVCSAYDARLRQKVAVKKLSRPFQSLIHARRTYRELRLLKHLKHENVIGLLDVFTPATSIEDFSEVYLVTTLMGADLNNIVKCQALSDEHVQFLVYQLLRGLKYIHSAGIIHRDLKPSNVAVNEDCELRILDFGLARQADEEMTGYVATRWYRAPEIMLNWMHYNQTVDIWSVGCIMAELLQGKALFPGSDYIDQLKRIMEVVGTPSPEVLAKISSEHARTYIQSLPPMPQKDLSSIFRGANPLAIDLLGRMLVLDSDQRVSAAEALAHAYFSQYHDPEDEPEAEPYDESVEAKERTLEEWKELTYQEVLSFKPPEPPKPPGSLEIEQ
Sequence of MAP kinase p38 (Homo sapiens) (Q16539 whole entry, looked up): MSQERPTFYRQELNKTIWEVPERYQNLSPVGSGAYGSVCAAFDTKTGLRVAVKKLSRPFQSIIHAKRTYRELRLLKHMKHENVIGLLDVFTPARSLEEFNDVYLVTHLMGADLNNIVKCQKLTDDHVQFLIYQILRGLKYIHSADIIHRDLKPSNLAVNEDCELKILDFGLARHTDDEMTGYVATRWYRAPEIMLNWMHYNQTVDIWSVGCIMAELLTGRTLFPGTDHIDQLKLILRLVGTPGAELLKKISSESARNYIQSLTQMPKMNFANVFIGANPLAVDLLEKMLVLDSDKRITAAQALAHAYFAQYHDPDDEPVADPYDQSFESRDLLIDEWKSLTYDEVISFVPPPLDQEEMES

[7] = target: Proto-oncogene tyrosine-protein kinase Src (Homo sapiens) (UniProt P12931); assay: Inhibition of human full length SRC expressed in baculovirus assessed as substrate phosphorylation using fluorescence-labelled peptides as substrate at 2 uM after 90 mins by microfluidic peptide phosphorylation assay
[8] = target: Casein kinase I isoform delta (Homo sapiens) (UniProt P48730); assay: Inhibition of human CK1D catalytic domain expressed in Escherichia coli cell assessed as substrate phosphorylation using fluorescence-labelled peptides as substrate at 2 uM after 90 mins by microfluidic peptide phosphorylation assay
Sequence of Casein kinase I isoform delta (Homo sapiens) (P48730 whole entry, looked up, the tested form may be a part, canonical isoform): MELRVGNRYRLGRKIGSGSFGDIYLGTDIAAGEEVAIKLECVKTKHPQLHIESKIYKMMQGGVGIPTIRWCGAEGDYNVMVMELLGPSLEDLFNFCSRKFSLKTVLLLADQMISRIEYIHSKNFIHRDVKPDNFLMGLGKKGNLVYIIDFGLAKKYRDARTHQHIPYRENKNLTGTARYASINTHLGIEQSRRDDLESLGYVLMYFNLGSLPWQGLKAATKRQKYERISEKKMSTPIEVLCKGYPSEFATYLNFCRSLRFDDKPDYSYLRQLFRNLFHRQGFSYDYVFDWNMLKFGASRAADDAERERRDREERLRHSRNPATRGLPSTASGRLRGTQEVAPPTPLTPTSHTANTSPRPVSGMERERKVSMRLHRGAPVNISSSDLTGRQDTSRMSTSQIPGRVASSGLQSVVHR

[9] = target: Insulin-like growth factor 1 receptor (Homo sapiens) (UniProt P08069); assay: Inhibition of human IGF1R catalytic domain expressed in baculovirus assessed as substrate phosphorylation using fluorescence-labelled peptides as substrate at […] after 90 mins by microfluidic peptide phosphorylation assay
[10] = target: Hepatocyte growth factor receptor (Homo sapiens) (UniProt P08581); assay: Inhibition of human MET cytoplasmic domain expressed in baculovirus assessed as substrate phosphorylation using fluorescence-labelled peptides as substrate at 9 uM after 90 mins by microfluidic peptide phosphorylation assay
Sequence of Hepatocyte growth factor receptor (Homo sapiens) (P08581 whole entry, the tested form may be a part): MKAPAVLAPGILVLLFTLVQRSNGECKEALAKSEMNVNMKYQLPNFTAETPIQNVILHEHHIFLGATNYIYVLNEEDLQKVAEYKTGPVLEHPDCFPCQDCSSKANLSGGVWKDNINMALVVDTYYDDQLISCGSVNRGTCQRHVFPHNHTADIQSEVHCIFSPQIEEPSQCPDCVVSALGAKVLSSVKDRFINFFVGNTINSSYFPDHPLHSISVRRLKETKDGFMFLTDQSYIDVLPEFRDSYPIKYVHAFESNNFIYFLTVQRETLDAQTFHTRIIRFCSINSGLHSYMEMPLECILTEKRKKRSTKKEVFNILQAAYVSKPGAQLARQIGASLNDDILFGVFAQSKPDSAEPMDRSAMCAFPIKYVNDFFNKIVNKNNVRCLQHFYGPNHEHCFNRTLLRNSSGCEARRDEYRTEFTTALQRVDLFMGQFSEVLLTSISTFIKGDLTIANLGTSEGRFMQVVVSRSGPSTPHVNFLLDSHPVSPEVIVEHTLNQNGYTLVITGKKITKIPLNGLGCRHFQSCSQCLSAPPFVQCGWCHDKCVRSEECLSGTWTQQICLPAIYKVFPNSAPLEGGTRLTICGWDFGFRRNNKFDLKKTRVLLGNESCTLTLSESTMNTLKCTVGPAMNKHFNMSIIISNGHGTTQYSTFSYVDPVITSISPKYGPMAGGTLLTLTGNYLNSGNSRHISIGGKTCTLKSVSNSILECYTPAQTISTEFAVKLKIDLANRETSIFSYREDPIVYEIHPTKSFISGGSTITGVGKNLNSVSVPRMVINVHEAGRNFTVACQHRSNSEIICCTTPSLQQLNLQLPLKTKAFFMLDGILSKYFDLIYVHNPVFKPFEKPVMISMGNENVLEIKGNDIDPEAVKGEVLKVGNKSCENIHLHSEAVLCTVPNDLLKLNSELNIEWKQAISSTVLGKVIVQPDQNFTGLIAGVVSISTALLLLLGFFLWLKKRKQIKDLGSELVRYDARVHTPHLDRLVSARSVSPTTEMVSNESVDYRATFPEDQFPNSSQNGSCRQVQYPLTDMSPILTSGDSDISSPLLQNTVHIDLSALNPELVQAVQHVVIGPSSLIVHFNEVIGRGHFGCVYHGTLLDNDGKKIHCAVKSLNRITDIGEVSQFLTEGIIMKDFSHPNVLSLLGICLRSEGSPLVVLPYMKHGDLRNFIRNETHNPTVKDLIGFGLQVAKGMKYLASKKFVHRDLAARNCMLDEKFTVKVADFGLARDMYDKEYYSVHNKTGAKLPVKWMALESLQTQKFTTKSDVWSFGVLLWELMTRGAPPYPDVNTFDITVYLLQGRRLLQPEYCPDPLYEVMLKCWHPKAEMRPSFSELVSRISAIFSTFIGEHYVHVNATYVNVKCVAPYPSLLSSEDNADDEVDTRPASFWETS

[11] = target: T3, Serine/threonine-protein kinase Nek2 (Homo sapiens) (UniProt P51955); assay: Inhibition of human full length NEK2 expressed in baculovirus assessed as substrate phosphorylation using fluorescence-labelled peptides as substrate at 9 uM after 90 mins by microfluidic peptide phosphorylation assay
T3 sequence (whole entry): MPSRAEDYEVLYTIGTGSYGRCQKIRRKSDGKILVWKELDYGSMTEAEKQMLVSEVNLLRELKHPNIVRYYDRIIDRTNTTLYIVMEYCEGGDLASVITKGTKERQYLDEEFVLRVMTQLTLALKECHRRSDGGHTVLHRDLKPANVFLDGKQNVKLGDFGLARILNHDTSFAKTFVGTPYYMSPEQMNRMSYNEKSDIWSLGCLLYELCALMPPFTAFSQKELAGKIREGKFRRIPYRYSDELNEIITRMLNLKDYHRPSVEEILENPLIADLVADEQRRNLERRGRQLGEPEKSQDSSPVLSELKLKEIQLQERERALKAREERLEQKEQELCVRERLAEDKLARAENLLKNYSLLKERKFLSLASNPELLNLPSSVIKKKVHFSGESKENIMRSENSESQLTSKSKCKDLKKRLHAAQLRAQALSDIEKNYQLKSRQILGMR

**Q.** How did the inhibition [1] turn out when NCCc1ccc(-c2ncnc3[nH]cnc23)cc1 was run?
**A.** The inhibition was 41.5%.

**Q.** And the inhibition [2]?
**A.** The inhibition was 91%.

**Q.** With Clc1ccc(C2(c3ccc(-c4ncnc5[nH]cnc45)cc3)CCNCC2)cc1 as the molecule, how does the inhibition [3] read?
**A.** Its inhibition is 0%.

**Q.** How did the inhibition [4] turn out when NCC1CCN(c2ncnc3[nH]ccc23)CC1 was run?
**A.** Its inhibition is 88.5%.

**Q.** And the inhibition [5]?
**A.** Its inhibition is 57.5%.

**Q.** And the inhibition (Homo sapiens)?
**A.** Its inhibition is 68%.

**Q.** For NC1CCN(c2ncnc3[nH]ccc23)CC1, which inhibition [6] is on record?
**A.** The inhibition was 5.5%.

**Q.** What about the inhibition [7] of the same molecule?
**A.** The inhibition was 0%.

**Q.** What about the inhibition [8] of the same molecule?
**A.** The inhibition was 0%.

**Q.** COC(=O)c1cnc(Nc2cnc(C#N)cn2)cc1NCC1CCNCC1 was tested. Which inhibition [9] did it give?
**A.** Its inhibition is 3.5%.

**Q.** For NCC1CN(c2ncnc3[nH]c4cnccc4c23)CCO1 (configuration not stated), which inhibition [10] is on record?
**A.** Its inhibition is 0%.

**Q.** What about the inhibition [11] of the same molecule?
**A.** The inhibition was 6%.
